{"source": "patent US11040087B2", "about": "“Therapeutic agent for diseases associated with abnormalities in dystroglycan sugar chain modification and method for assaying associated enzyme” (NATIONAL UNIVERSITY CORPORATION KOBE UNIVERSITY, priority 2016, dated 2021)", "key": {"[1]": {"system": "ISPD-deficient HAP1 cells", "settings": "ISPD-deficient (KO) HAP1 cells; CDP-ribitol added to culture medium at final concentration 1 mM; culture 24 hours; western blot", "experimental": "(§1) In this Example, for HAP1 cells and HEK cells, cells deficient in ISPD were generated using a CRISPR/CAS9 genome editing method. The HAP1 cells are a haploid cell line derived from cultured human leukemia cells (KBM7), and are cells capable of being subjected to genome editing with high efficiency.\n(§2) The deficiency mutation of the ISPD-deficient cells was confirmed by DNA sequencing. To each culture medium, CDP-ribitol was added at a final concentration of 1 mM, followed by culture for 24 hours. After the culture, cell endogenous dystroglycan was prepared from a cell extract, and the state of glycosylation was confirmed by a western blot method."}, "[2]": {"system": "ISPD-deficient HEK cells", "settings": "ISPD-deficient (KO) HEK cells; CDP-ribitol 1 mM administered simultaneously with cell transfection reagent (lipofectamine); culture 24 hours; western blot", "experimental": "as §1, §2"}}}
{"substance": "cytidine diphosphate ribitol [CDP-ribitol]", "values": [{"measurement": "state of glycosylation of cell endogenous dystroglycan (α-DG)", "setting": "[1]", "result": "caused glycosylation of α-DG similar to that in the normal cells"}, {"measurement": "state of glycosylation of cell endogenous dystroglycan (α-DG)", "setting": "[2]", "result": "the restoration of the glycan was confirmed"}]}
